# Source: ChEMBL document CHEMBL5543072, “Discovery of a novel lead characterized by a stilbene-extended scaffold against sepsis as soluble epoxide hydrolase inhibitors” (Eur J Med Chem, 2024)
# Legend:
# [1] = Tmax in Sprague-Dawley rat at 5 mg/kg, iv measured after 24 hrs; format: ADME, organism-based; details: in vivo
# [2] = Cmax in Sprague-Dawley rat at 5 mg/kg, iv measured after 24 hrs; format: ADME, organism-based; details: in vivo
# [3] = AUC (0 to 24 hrs) in Sprague-Dawley rat at 5 mg/kg, iv measured after 24 hrs; format: ADME, organism-based; details: in vivo
# [4] = Half-life in Sprague-Dawley rat at 20 mg/kg, po measured after 24 hrs; format: ADME, organism-based; details: in vivo
# [5] = Tmax in Sprague-Dawley rat at 20 mg/kg, po measured after 24 hrs; format: ADME, organism-based; details: in vivo
# [6] = Cmax in Sprague-Dawley rat at 20 mg/kg, po measured after 24 hrs; format: ADME, organism-based; details: in vivo
# [7] = Oral bioavailability in Sprague-Dawley rat at 20 mg/kg measured after 24 hrs; format: ADME, organism-based; details: in vivo
# Mus musculus [8] = test: Protection against LPS-induced sepsis in C57BL/6J mouse model assessed as survival rate at 5 mg/kg, iv measured after 24 hrs relative to control; format: functional
# Mus musculus [9] = test: Protection against LPS-induced sepsis in C57BL/6J mouse model assessed as survival rate at 5 mg/kg, iv measured after 48 hrs relative to control; format: functional
# Mus musculus [10] = test: Protection against LPS-induced sepsis in C57BL/6J mouse model assessed as survival rate at 5 mg/kg, iv measured after 72 hrs relative to control; format: functional
# Mus musculus [11] = test: Protection against LPS-induced sepsis in C57BL/6J mouse model assessed as […] at 5 mg/kg, iv measured after 32 hrs relative to control; format: functional
# Mus musculus [12] = test: Protection against LPS-induced sepsis in C57BL/6J mouse model assessed as survival rate at 30 mg/kg, iv measured after 24 hrs relative to control; format: functional
# Mus musculus [13] = test: Protection against LPS-induced sepsis in C57BL/6J mouse model assessed as survival rate at 30 mg/kg, iv measured after 48 hrs relative to control; format: functional
# Mus musculus [14] = test: Protection against LPS-induced sepsis in C57BL/6J mouse model assessed as survival rate at 30 mg/kg, iv measured after 72 hrs relative to control; format: functional
# Mus musculus [15] = test: Protection against LPS-induced sepsis in C57BL/6J mouse model assessed as survival rate at 0.5 mg/kg, iv measured after 72 hrs relative to control; format: functional
# Mus musculus [16] = test: Protection against LPS-induced sepsis in C57BL/6J mouse model assessed as survival rate at 0.05 mg/kg, iv measured after 24 hrs relative to control; format: functional
# Mus musculus [17] = test: Protection against LPS-induced sepsis in C57BL/6J mouse model assessed as survival rate at 0.05 mg/kg, iv measured after 72 hrs relative to control; format: functional
# Mus musculus [18] = test: Protection against LPS-induced sepsis in C57BL/6J mouse model assessed as survival rate at 30 mg/kg, iv measured upto 56 hrs relative to control; format: functional
# Mus musculus [19] = test: Anti-inflammatory activity in LPS-induced C57BL/6J mouse model of sepsis assessed as TNF-alpha in liver at 5 mg/kg, ip preadministered with compound for 24 hrs followed by LPS administration and measured after 3 hrs by ELISA (reference value: 298 pg/ml); format: functional; details: time 27 hrs
# Mus musculus [20] = test: Anti-inflammatory activity in LPS-induced C57BL/6J mouse model of sepsis assessed as IL-6 in liver at 5 mg/kg, ip preadministered with compound for 24 hrs followed by LPS administration and measured after 3 hrs by ELISA (reference value: 308 pg/ml); format: functional; details: time 27 hrs
# Mus musculus [21] = test: Anti-inflammatory activity in LPS-induced C57BL/6J mouse model of sepsis assessed as TNF-alpha in serum at 5 mg/kg, ip preadministered with compound for 24 hrs followed by LPS administration and measured after 3 hrs by ELISA (reference value: 282 pg/ml); format: functional; details: time 27 hrs
# [22] = Cmax in C57BL/6J mouse blood at 5 mg/kg, ip measured after 24 hrs by LC-MS/MS analysis; format: ADME, organism-based
# [23] = Cytotoxicity against human HepG2 cells assessed as cell viability at 5 uM incubated for 48 hrs by CCK8 assay relative to control; format: toxicity, cell-based; details: read-out: Activity
# [24] = Cytotoxicity against human HepG2 cells assessed as cell viability at 50 uM incubated for 48 hrs by CCK8 assay relative to control; format: toxicity, cell-based; details: read-out: Activity
# [25] = molecular target: T1, Bifunctional epoxide hydrolase 2 (Mus musculus, UniProt P34914)
# T1 sequence (P34914 whole entry): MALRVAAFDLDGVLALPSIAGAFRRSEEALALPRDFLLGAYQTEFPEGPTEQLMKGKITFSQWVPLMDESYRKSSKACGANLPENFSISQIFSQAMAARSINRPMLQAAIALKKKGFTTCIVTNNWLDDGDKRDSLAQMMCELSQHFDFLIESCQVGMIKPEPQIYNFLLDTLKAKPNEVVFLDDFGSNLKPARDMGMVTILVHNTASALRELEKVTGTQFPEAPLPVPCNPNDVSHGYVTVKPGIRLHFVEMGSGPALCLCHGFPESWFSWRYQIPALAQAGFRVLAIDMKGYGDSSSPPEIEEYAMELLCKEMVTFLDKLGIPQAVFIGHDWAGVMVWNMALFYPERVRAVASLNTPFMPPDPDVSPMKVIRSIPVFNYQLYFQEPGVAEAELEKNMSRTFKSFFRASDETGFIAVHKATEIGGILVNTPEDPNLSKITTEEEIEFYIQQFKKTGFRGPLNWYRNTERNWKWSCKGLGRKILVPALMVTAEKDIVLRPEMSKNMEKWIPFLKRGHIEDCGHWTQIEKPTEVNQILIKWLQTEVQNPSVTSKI
# [26] = molecular target: T2, Bifunctional epoxide hydrolase 2 (Homo sapiens, UniProt P34913)
# T2 sequence (P34913 whole entry): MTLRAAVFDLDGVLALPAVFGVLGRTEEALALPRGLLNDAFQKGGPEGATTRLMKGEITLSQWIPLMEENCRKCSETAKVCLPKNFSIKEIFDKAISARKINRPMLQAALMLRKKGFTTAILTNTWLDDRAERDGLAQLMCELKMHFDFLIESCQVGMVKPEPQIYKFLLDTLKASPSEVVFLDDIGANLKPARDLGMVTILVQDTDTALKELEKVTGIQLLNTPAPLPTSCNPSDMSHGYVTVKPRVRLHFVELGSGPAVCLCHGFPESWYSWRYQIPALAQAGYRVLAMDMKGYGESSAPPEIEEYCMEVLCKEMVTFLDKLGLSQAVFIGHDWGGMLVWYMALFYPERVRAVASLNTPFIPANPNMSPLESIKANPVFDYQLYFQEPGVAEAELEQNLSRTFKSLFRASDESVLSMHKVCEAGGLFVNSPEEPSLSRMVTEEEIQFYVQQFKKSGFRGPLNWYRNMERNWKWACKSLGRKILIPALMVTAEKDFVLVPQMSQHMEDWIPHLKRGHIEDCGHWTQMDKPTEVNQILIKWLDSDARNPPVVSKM
# in vivo [27] = details: C57BL/6J, mouse, other tissue, ip, 5 mg/kg
# Description: Ratio of Cmax in C57BL/6J mouse liver to blood at 5 mg/kg, ip measured after 24 hrs by LC-MS/MS analysis
# in vivo [28] = details: C57BL/6J, mouse, other tissue, ip, 5 mg/kg; remark: listed apart in the source
# Description: Ratio of AUC (0 to 24 hrs)in C57BL/6J mouse liver to blood at 5 mg/kg, ip measured after 24 hrs by LC-MS/MS analysis
compound,measurement,setting,value
O=C(Cc1ccccn1)Nc1cccc(/C=C/c2ccc(NC(=O)NCC3CCOCC3)cc2)c1,Tmax,[1],4.8 min
same,Cmax,[2],660 ng/mL
same,AUC(0-t) at 24 h,[3],266 ng·h/mL
same,half-life,[4],131 min
same,Tmax,[5],30 min
same,Cmax,[6],28.2 ng/mL
same,bioavailability,[7],5.1%
same,survival at 5 mg/kg,Mus musculus [8],60%
same,survival at 5 mg/kg,Mus musculus [9],40%
same,survival at 5 mg/kg,Mus musculus [10],40%
same,Activity,Mus musculus [11],40%
same,survival at 30 mg/kg,Mus musculus [12],60%
same,survival at 30 mg/kg,Mus musculus [13],50%
same,survival at 30 mg/kg,Mus musculus [14],10%
same,survival at 0.5 mg/kg,Mus musculus [15],40%
same,survival at 0.05 mg/kg,Mus musculus [16],30%
same,survival at 0.05 mg/kg,Mus musculus [17],10%
same,survival at 30 mg/kg,Mus musculus [18],> 50%
same,Activity,Mus musculus [19],193 pg/mL
same,Activity,Mus musculus [20],270 pg/mL
same,Activity,Mus musculus [21],242 pg/mL
same,Cmax,[22],330 ng/mL
same,"viability at 48 h, 5 µM",[23],73.9%
same,"viability at 48 h, 50 µM",[24],46.5%
same,IC50,[25],4.02 nM
same,IC50,[26],1.52 nM
same,Kp at 24 h,in vivo [27],7.6
same,Kp at 24 h,in vivo [28],175
